Test systems include SNB-75 CNS; ACHN renal; HOP-92 NSCLC; HCT-15 colon; M14 melanoma; MOLT-4 leukemia; UACC-62 melanoma; CCRF-CEM leukemia; 786-0 renal; SW-620 colon.
Assay in all cases: DTP human tumour cell line panel, 48 h

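Test compounds were applied to cells in 96-well plates for 48 hours at 5 doses. GI50 = concentration required for 50% inhibition of growth. TGI is the concentration that stops growth completely.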

In general, GI50 refers to the concentration at which growth is held to half of that of the control. As usually defined, the TGI is the concentration at which net growth stops. Higher therefore signals lower sensitivity of the cells. For `C1C[OH+]CCNCC[OH+]CC[OH+]CCN1.[Cl-].[Pt+4]`, the GI50 in the assay on SNB-75 CNS, in the assay on ACHN renal, in the assay on HOP-92 NSCLC, in the assay on HCT-15 colon, in the assay with M14 melanoma and with MOLT-4 leukemia was over 100 µM in each case. The GI50 was over 100 µM in the assay with UACC-62 melanoma, 51.4 µM with CCRF-CEM leukemia, over 100 µM with 786-0 renal and over 100 µM in the assay with SW-620 colon. Moreover, the TGI with SNB-75 CNS, in the assay with ACHN renal, in the assay with HOP-92 NSCLC, in the assay on HCT-15 colon, in the assay on M14 melanoma and with MOLT-4 leukemia was over 100 µM throughout. Further, the TGI in the assay on UACC-62 melanoma, in the assay on CCRF-CEM leukemia, in the assay with 786-0 renal and in the assay on SW-620 colon was over 100 µM in each case.

With `O=C(Nc1ccc(-n2cc(-c3ccncc3)c(-c3ccc(Cl)c(O)c3)n2)cc1)Nc1ccc(Cl)c(C(F)(F)F)c1`, the GI50 in the assay with SNB-75 CNS was 0.363 µM; in the assay on ACHN renal it was 1.78 µM; in the assay on HOP-92 NSCLC, 1.57 µM; in the assay on HCT-15 colon, 1.31 µM; in the assay with M14 melanoma, 1.43 µM; in the assay on MOLT-4 leukemia, 1.14 µM. Moreover, the GI50 with UACC-62 melanoma was 1.7 µM; in the assay on CCRF-CEM leukemia, 1.53 µM; in the assay on 786-0 renal it was 1.22 µM; in the assay with SW-620 colon, 2.48 µM. Further, the TGI came out at 2.14 µM in the assay on SNB-75 CNS; 4.94 µM in the assay on ACHN renal; 4.21 µM in the assay on HOP-92 NSCLC; 2.95 µM with HCT-15 colon; 3.11 µM in the assay with M14 melanoma; 6.77 µM with MOLT-4 leukemia. Moreover, the TGI in the assay with UACC-62 melanoma was determined as 3.44 µM; with CCRF-CEM leukemia, 8.79 µM; in the assay with 786-0 renal it was 3.11 µM; with SW-620 colon, 5.04 µM.

For the compound `COC(=O)/C(C=O)=C/Sc1ccccc1`, the TGI is 50.9 µM with SNB-75 CNS; over 100 µM in the assay on ACHN renal; over 100 µM in the assay with HOP-92 NSCLC; over 100 µM with HCT-15 colon; 42.6 µM with M14 melanoma; over 100 µM in the assay on MOLT-4 leukemia. The TGI in the assay with UACC-62 melanoma is 77.8 µM; with CCRF-CEM leukemia, over 100 µM; with 786-0 renal, 30.2 µM; in the assay on SW-620 colon it was over 100 µM.

With `COc1ccc(Nc2c3ccccc3nc3occ(Cl)c23)cc1`, the GI50 is 0.0908 µM in the assay with SNB-75 CNS; 1.44 µM in the assay with ACHN renal; 0.0165 µM with HOP-92 NSCLC; under 0.01 µM in the assay on HCT-15 colon; 0.0287 µM in the assay on M14 melanoma; 0.0266 µM in the assay with MOLT-4 leukemia. Besides, the GI50 is 0.0104 µM with UACC-62 melanoma, 0.0199 µM in the assay with CCRF-CEM leukemia, 0.0335 µM in the assay on 786-0 renal and under 0.01 µM with SW-620 colon. In addition, the TGI in the assay on SNB-75 CNS was over 100 µM; in the assay on ACHN renal it was over 100 µM; in the assay with HOP-92 NSCLC it was 7.17 µM; with M14 melanoma it was 19.5 µM; with MOLT-4 leukemia it was over 44.5 µM; in the assay on UACC-62 melanoma it was 42.4 µM. The TGI in the assay with CCRF-CEM leukemia stood at 0.416 µM; with 786-0 renal it was 21 µM; in the assay on SW-620 colon, 18.4 µM.

Take `COc1ccc2ncn(-c3cc(O[C@H](C)c4ccccc4Cl)c(C(N)=O)s3)c2c1`: the concentration for 50% growth inhibition (GI50) in the assay with SNB-75 CNS is 0.148 µM; with ACHN renal, 1.13 µM; in the assay with HOP-92 NSCLC, 0.404 µM; in the assay on HCT-15 colon, 0.0203 µM; in the assay with M14 melanoma, 0.0164 µM; in the assay with MOLT-4 leukemia it was 0.0122 µM. In addition, the GI50 in the assay on UACC-62 melanoma was 0.0213 µM; in the assay on CCRF-CEM leukemia, 0.00861 µM; in the assay on 786-0 renal, 0.281 µM; in the assay with SW-620 colon it was 0.00926 µM. Besides, the TGI was over 19.7 µM with SNB-75 CNS; over 25 µM in the assay with ACHN renal; 8.01 µM with HOP-92 NSCLC; over 25 µM in the assay with HCT-15 colon; over 25 µM in the assay on M14 melanoma; over 10.5 µM in the assay with MOLT-4 leukemia. In addition, the TGI in the assay on UACC-62 melanoma was 3.99 µM; with CCRF-CEM leukemia, 6.35 µM; in the assay with 786-0 renal, 8.27 µM; with SW-620 colon it was 3.69 µM.

Consider `[Au+].[Au+].[Au+].[c-]1nccn1Cc1ccccc1.[c-]1nccn1Cc1ccccc1.[c-]1nccn1Cc1ccccc1`, for which the GI50 in the assay with SNB-75 CNS was 6.08 µM; with ACHN renal, 14.3 µM; in the assay with HOP-92 NSCLC, 2.34 µM; in the assay with HCT-15 colon, 19.9 µM; with M14 melanoma, 2.75 µM; in the assay with MOLT-4 leukemia, 7.96 µM. Also, the GI50 is 5.23 µM in the assay on UACC-62 melanoma, 3.71 µM in the assay with CCRF-CEM leukemia, 1.73 µM in the assay on 786-0 renal and 7.78 µM in the assay with SW-620 colon. Also, the TGI in the assay with SNB-75 CNS was 18.9 µM; in the assay with ACHN renal, 28.6 µM; in the assay on HOP-92 NSCLC it was 4.25 µM; with HCT-15 colon it was 56.7 µM; in the assay on M14 melanoma it was 6.68 µM; in the assay with MOLT-4 leukemia, over 100 µM. Further, the TGI with UACC-62 melanoma is 21.4 µM; in the assay on CCRF-CEM leukemia, over 25.5 µM; in the assay with 786-0 renal, 3.11 µM; with SW-620 colon it was over 19.7 µM.

Turning to `COc1cc2c3c(n(CCCN(C)C)c(=O)c2cc1OC)-c1ccccc1C3=O`, the GI50 in the assay on SNB-75 CNS is 6.9 µM; in the assay with ACHN renal, 6.9 µM; in the assay with HOP-92 NSCLC, 23.2 µM; with HCT-15 colon it was 17.8 µM; with M14 melanoma it was 3.83 µM; with MOLT-4 leukemia it was 0.463 µM. The GI50 with UACC-62 melanoma is 1.48 µM; in the assay with CCRF-CEM leukemia, 0.24 µM; in the assay with 786-0 renal, 16 µM; with SW-620 colon, 2.11 µM. Besides, the TGI in the assay with SNB-75 CNS was over 100 µM; with ACHN renal, 20.8 µM; in the assay on HOP-92 NSCLC it was over 100 µM; in the assay on HCT-15 colon it was over 53.3 µM; in the assay with M14 melanoma, over 88.2 µM; in the assay on MOLT-4 leukemia, 1.73 µM. In addition, the concentration for total growth inhibition (TGI) in the assay on UACC-62 melanoma turned out to be 19.1 µM; in the assay on CCRF-CEM leukemia, 1.73 µM; in the assay on 786-0 renal, 73.9 µM; with SW-620 colon it was 66 µM.

`COC(=O)/C(C)=C/[N+](=O)[O-]`: the TGI in the assay with SNB-75 CNS amounted to 30.1 µM; with ACHN renal, 35.5 µM; with HOP-92 NSCLC, 22.8 µM; with HCT-15 colon, 34.4 µM; with M14 melanoma, 29.2 µM; in the assay with MOLT-4 leukemia it was 39.4 µM. The TGI in the assay with UACC-62 melanoma is 32.8 µM; in the assay on CCRF-CEM leukemia, 6.48 µM; with 786-0 renal it was 32.3 µM; in the assay with SW-620 colon, 26.8 µM.

Source of the values: PubChem BioAssay (NCI).
